According to patent US7547687B2, “Therapeutic treatment methods” (priority 2002, dated 2009):

What was measured:
[1] = system: lethally-irradiated female B6D2F1 mice; test: Survival of lethally-irradiated mice (10 Gy total body irradiation); format: in vivo; conditions: groups of 12 animals
Protocol: Treatment of ionizing radiation exposure. The effect of selected F1Cs on survival of lethally-irradiated female B6D2F1 mice were compared to control animals treated with vehicle alone. The animals were exposed to 10 Gy of total body irradiation at 2.5 Gy/min using a ^137Cs source. […] For Group 4, test article was administered as a 50 μL volume, by intramuscular injection for three consecutive days. The formulation was a suspension containing 0.1% w/v carboxymethyl-cellulose, 0.9% w/v sodium chloride and 0.05% v/v phenol. The formulations were agitated to uniformly resuspend the F1C before syringing, and injected into animals within a few minutes of drawing into the syringe to prevent settling in the syringe.
The groups of animals were treated as follows.
The number of surviving animals is shown for day 6, 7, 12 and 21.

[2] = system: U937 human promonocytic leukemia cells; test: Microarray analysis of transcript levels in PMA-treated U937 cells exposed to BrEA; format: cell-based; conditions: for Ratio of BrEA treated cells compared to control cells (transcript level): 10 μM BrEA, PMA-treated U937 cells
From the text: Modulation of transcription. The effect of 16α-bromoepiandrosterone (“BrEA”) on transcript levels in cells in vitro was studied using a microarray to allow simultaneous monitoring of the expression of many genes to allow detailed analysis of the molecular pathways involved in biological responses to the compound.
In general, microarray technology works by covalently linking short DNA sequences that are complementary to the transcripts of many different genes on a single slide or array chip. mRNAs from test and control samples are generated and labeled with one or more colored fluorescent dyes or probes. The probes are hybridized with the array, which is then scanned by laser. The color and intensity of the fluorescent signal at each spot denotes relative expression level of each gene. The capacity of other F1Cs described herein, e.g., a F1C in compound group 1, 2, 3, 4 or 5, to modulate gene expression is characterized in a similar manner.
The array used in the experiment described below, contained about 12,000 known genes. The experiment used U937 human promonocytic leukemia cells that differentiate to monocyte/macrophage cells in the presence of phorbol-12-myristate-13-acetate (“PMA”). The U937 cells were PMA treated and then exposed to BrEA for 1 hr, 2 hrs, or 4 hrs, followed by bacterial lipopolysaccharide (“LPS”) stimulation for 1 hr, 2 hrs or 4 hrs. The level of transcripts of the genes on the array was measured at the time points using RNA prepared from BrEA-treated and control (no BrEA) cells. U937 cells were plated at 1×10^5 cells/mL in the presence of 3 ng/mL PMA (Sigma, Catalog #P-8139) for 48 hrs. Cells were then treated with either 10 μM BrEA or DMSO (vehicle) for 1 hr, 2 hr, and 4 hrs. At each time point, cells were harvested and total RNA was extracted using Qiagen Rneasy kit according to manufacturer's specification. Total RNA samples were then analyzed by Mergen Ltd. (San Leandro, Calif. www.mergen.com) to perform microarray assay.
For the microarray assay, Dnase-treated total RNA (20 micrograms) was reverse-transcribed using an oligo[(dT)24 T7 promoter]65 primer (consisting of the nucleotide binding sequence for the T7 RNA polymerase followed by 24 thymidine nucleotides). This was followed by second strand synthesis. The reaction mixture was then treated with Rnase I to digest the remaining RNA. The double-stranded cDNA was phenol-chloroform extracted and used as template for in vitro transcription (T7 MEGAscript, Ambion, Inc.) to generate biotin-labeled cRNA probes. These probes were hybridized overnight at 30° C. with continuous agitation to Mergen's ExpressChip HO5 DNA Microarray System (catalog number HO5-001) containing 12,000 genes. The arrays were then washed, and hybridized probes were detected using Mergen's cyanine-3 fluorescent dye-conjugated protein. Chips were imaged using an Affymetrix 417-418 form Affymetrix/Genetic MicroSystems (www.affymetrix.com) and spot intensity was quantitated using ImaGenefrom BioDiscovery Inc. .______
The up-regulation of many of these genes most apparent at 4 hr after treatment, at which time roughly 700 genes were within the above criteria. Some examples are shown in the following list. The ratios given in the list are from BrEA treated cells compared to control cells not treated with BrEA.

[3] = system: female BALB/cByJ mice; test: Delayed type hypersensitivity (DTH) response to topical oxazolone challenge, differential ear thickness; format: in vivo; conditions: 24 hours after oxazolone challenge; vehicle alone 0.225 mm
Protocol: Modulation of delayed type hypersensitivity. The capacity of F1Cs to modulate delayed type hypersensitivity (DTH) is determined in mice. Groups of five female BALB/cByJ mice (20-25 grams) are anesthetized and 100 μL of a 3% solution of oxazolone is applied on day 0 to the shaved abdomen and dried. Seven days later, on day 7, the mice are challenged by applying 5 μL of oxazolone topically to each side of the right ear. The F1C (at about 20-100 mg/mL) in vehicle is administered by subcutaneous injection (2 mg/day) one time on day 6, 24 hours before the oxazolone challenge. The vehicle as a non-aqueous suspension of the F1C in, e.g., 2% benzyl alcohol w/v, 0.1% Brij 96 w/v and equal volumes of PEG 300 and propylene glycol.
Dexamethasone in saline (0.2 mg/mL) is administered daily for 9 days (day −1 to 7), first dose 24 hours before sensitization, last dose at challenge by subcutaneous injection (0.01 mg/dose, 50 μL/injection). On Day 8, 24 hours following the oxazolone challenge, both the right and left ear thicknesses are measured using a micrometer caliper and the differences are determined. The differential ear thickness is measured as an indicator of the DTH response to topical oxazolone challenge. The DTH response is expressed as the difference in the thickness (mm) between the right and the left ears for each animal.

[4] = 0.6 mg i.m. daily for 3 consecutive days after 10 Gy
[5] = 0.6 mg s.c. daily for 3 consecutive days, first dose 2 to 4 hours after 10 Gy
[6] = 3.0 mg s.c. daily for 3 consecutive days after 10 Gy

`C[C@]12CC[C@H]3[C@@H](CC=C4C[C@@H](O)CC[C@@]43C)[C@@H]1CC[C@@H]2O` [3β,17β-dihydroxyandrost-5-ene] was tested, and the “number of surviving animals, day 6” value [1, 4] was 12, the “number of surviving animals, day 7” value [1, 4] was 12 and the “number of surviving animals, day 12” value [1, 4] was 11. The “number of surviving animals, day 21” value [1, 4] was 9, the “number of surviving animals, day 6” value [1, 5] was 12 and the “number of surviving animals, day 7” value [1, 5] was 11. For the same compound, the “number of surviving animals, day 12” value [1, 5] was 10, the “number of surviving animals, day 21” value [1, 5] was 7 and the “number of surviving animals, day 6” value [1, 6] was 12. For the same compound, the “number of surviving animals, day 7” value [1, 6] was 12, the “number of surviving animals, day 12” value [1, 6] was 9 and the “number of surviving animals, day 21” value [1, 6] was 7.
In the case of `C[C@]12CC[C@H]3[C@@H](CC=C4C[C@@H](O)CC[C@@]43C)[C@@H]1CC[C@@H]2N` [3β-hydroxy-17β-aminoandrost-5-ene], the “number of surviving animals, day 6” value [1, 5] is reported as 12, the “number of surviving animals, day 7” value [1, 5] is reported as 12 and the “number of surviving animals, day 12” value [1, 5] is reported as 12. For the same compound, the “number of surviving animals, day 21” value [1, 5] was 11.
With `C[C@]12CC[C@H](O)C[C@@H]1CC[C@@H]1[C@@H]2CC[C@]2(C)C(=O)[C@H](Br)C[C@@H]12` [BrEA, 16α-bromoepiandrosterone] the “number of genes up-regulated (at least two-fold higher than control and significantly higher than background)” value ([2]; 4 hr after treatment, array of about 12,000 genes) was “roughly 700 genes”, the “transcripts of Cul1” value ([2]; at 1 hr) was “increased” and the “transcripts of EGR1” value ([2]; at 1 hr) was “increased”. For the same compound, the “transcripts of USF1” value ([2]; at 1 hr) was “increased”, the “transcripts of c-Fos” value ([2]; at 1 hr) was “increased” and the “Jun B transcript” value ([2]; at 4 hrs) was “increased”. For the same compound, the “Ratio of BrEA treated cells compared to control cells (transcript level)” value (“Ratio of BrEA treated cells” below) ([2]; gene ATF3 (Hs.460)) was 5.3, the “Ratio of BrEA treated cells” value ([2]; gene ATP2B1 (Hs.78546)) was 5.4 and the “Ratio of BrEA treated cells” value ([2]; gene DUSP5 (Hs.2128)) was 10.2. The “Ratio of BrEA treated cells” value ([2]; gene EHD1 (Hs.155119)) was 9.7, the “Ratio of BrEA treated cells” value ([2]; gene GG2-1 (Hs.17839)) was 10.3 and the “Ratio of BrEA treated cells” value ([2]; gene GRO2 (Hs.75765)) was 9.6. The “Ratio of BrEA treated cells” value ([2]; gene GRO3 (Hs.89690)) was 124.7, the “Ratio of BrEA treated cells” value ([2]; gene HIVEP2 (Hs.75063)) was 6.6 and the “Ratio of BrEA treated cells” value ([2]; gene HSPA1B (Hs.274402)) was 7.8. The “Ratio of BrEA treated cells” value ([2]; gene IL1B (Hs.126256)) was 27.5, the “Ratio of BrEA treated cells” value ([2]; gene IL1RN (Hs.81134)) was 53.0 and the “Ratio of BrEA treated cells” value ([2]; gene IL15RA (Hs.12503)) was 7.6. The “Ratio of BrEA treated cells” value ([2]; gene IL23A (Hs.98309)) was 131.8, the “Ratio of BrEA treated cells” value ([2]; gene INHBA (Hs.727)) was 21.5 and the “Ratio of BrEA treated cells” value ([2]; gene KIAA1376 (Hs.24684)) was 7.7. For the same compound, the “Ratio of BrEA treated cells” value ([2]; gene KIAA1726 (Hs.164719)) was 6.9, the “Ratio of BrEA treated cells” value ([2]; gene LOC51285 (Hs.27018)) was 5.9 and the “Ratio of BrEA treated cells” value ([2]; gene MACS (Hs.75607)) was 30.0. The “Ratio of BrEA treated cells” value ([2]; gene MAIL (Hs.301183)) was 25.5, the “Ratio of BrEA treated cells” value ([2]; gene MAP3K5 (Hs.151988)) was 7.1 and the “Ratio of BrEA treated cells” value ([2]; gene MGC5618 (Hs.177781)) was 32.0. For the same compound, the “Ratio of BrEA treated cells” value ([2]; gene NAF1 (Hs.109281)) was 6.4, the “Ratio of BrEA treated cells” value ([2]; gene NFKBIA (Hs.81328)) was 11.3 and the “Ratio of BrEA treated cells” value ([2]; gene OLR1 (Hs.77729)) was 26.1. The “Ratio of BrEA treated cells” value ([2]; gene PBEF (Hs.239138)) was 9.2, the “Ratio of BrEA treated cells” value ([2]; gene PIM2 (Hs.80205)) was 14.5 and the “Ratio of BrEA treated cells” value ([2]; gene PKIG (Hs.3407)) was 5.4. For the same compound, the “Ratio of BrEA treated cells” value ([2]; gene PTX3 (Hs.2050)) was 1348.4, the “Ratio of BrEA treated cells” value ([2]; gene REV3L (Hs.115521)) was 5.3 and the “Ratio of BrEA treated cells” value ([2]; gene RGS16 (Hs.183601)) was 29.2. The “Ratio of BrEA treated cells” value ([2]; gene RIPK2 (Hs.103755)) was 6.6, the “Ratio of BrEA treated cells” value ([2]; gene SCYA1 (Hs.72918)) was 40.4 and the “Ratio of BrEA treated cells” value ([2]; gene SCYA4 (Hs.75703)) was 67.3. For the same compound, the “Ratio of BrEA treated cells” value ([2]; gene SCYA8 (Hs.271387)) was 7.0, the “Ratio of BrEA treated cells” value ([2]; gene SCYA20 (Hs.75498)) was 174.0 and the “Ratio of BrEA treated cells” value ([2]; gene SERPINE1 (Hs.82085)) was 8.4. The “Ratio of BrEA treated cells” value ([2]; gene SOD2 (Hs.318885)) was 39.7, the “Ratio of BrEA treated cells” value ([2]; gene SSI-1 (Hs.50640)) was 16.9 and the “Ratio of BrEA treated cells” value ([2]; gene STAT5A (Hs.167503)) was 5.9. For the same compound, the “Ratio of BrEA treated cells” value ([2]; gene STK2 (Hs.1087)) was 9.0, the “Ratio of BrEA treated cells” value ([2]; gene TNFAIP2 (Hs.101382)) was 17.4 and the “Ratio of BrEA treated cells” value ([2]; gene TNFAIP3 (Hs.211600)) was 5.1. For the same compound, the “Ratio of BrEA treated cells” value ([2]; gene TNFAIP6 (Hs.29352)) was 1733.0, the “Ratio of BrEA treated cells” value ([2]; gene TRAF1 (Hs.2134)) was 15.0 and the “Ratio of BrEA treated cells” value ([2]; gene TRG@ (Hs.112259)) was 17.4.
For `O=P1(N(CCCl)CCCl)NCCCO1` (stereo not drawn) [cyclophosphamide], the “DTH response (differential ear thickness, right minus left ear)” value [3] was 0.092 mm.
In the case of `C[C@@H]1C[C@H]2[C@@H]3CCC4=CC(=O)C=C[C@]4(C)[C@@]3(F)[C@@H](O)C[C@]2(C)[C@@]1(O)C(=O)CO` [dexamethasone], the “DTH response (differential ear thickness, right minus left ear)” value [3] is reported as 0.144 mm.
